In patent publication US8609695B2, “Methods of treating and/or suppressing insulin resistance” (Endorecherche, Inc., priority 1999, dated 2013):

Test system: human endometrial adenocarcinoma Ishikawa cells
Assay: Alkaline phosphatase activity in Ishikawa cells (Example 11)
Assay type: cell-based
Conditions: for Stimulation of alkaline phosphatase by tested compounds % of 1 nM E2 stimulation: Ishikawa cells, five days incubation, intrinsic estrogenic activity, hydrochloride
Method: The human Ishikawa cell line derived from a well differentiated endometrial adenocarcinoma was kindly provided by Dr. Erlio Gurpide, The Mount Sinai Medical Center, New York, N.Y. The Ishikawa cells were routinely maintained in Eagle's Minimum Essential Medium (MEM) containing 5% (vol/vol) FBS and supplemented with 100 U/ml penicillin, 100 μg/ml streptomycin, 0.1 mM Non-essential Amino Acids solution. Cells were plated in Falcon T75 flasks at a density of 1.5×10^6 cells at 37 C.
Twenty four hours before the start of an experiment, the medium of near confluent Ishikawa cells was replaced by fresh estrogen-free basal medium (EFBM) consisting of a 1:1 (v:v) mixture of phenol red-free Ham's F-12 and Dulbecco's Modified Eagle's Medium (DMEM) supplemented with 100 U/mL penicillin, 100 μg/mL Streptomycin, 2 mM glutamine, and 5% FBS treated twice with dextran-coated charcoal to remove endogenous steroids. Cells were then harvested by 0.1% pancreatin (Sigma) and 0.25 mM HEPES, resuspended in EFBM and plated in Falcon 96 well flat-bottomed microtiter plates at a density of 2.2×10^4 cells/well in a volume of 100 μl and allowed to adhere to the surface of the plates for 24 h. Thereafter, medium was replaced with fresh EFBM containing the indicated concentrations of compounds in a final volume of 200 μl. Cells were incubated for five days, with a medium change after 48 h.
At the end of the incubation period, microtiter plates were inverted and growth medium was decanted. The plates were rinsed with 200 μL by well of PBS (0.15M NaCl, 10 mM sodium phosphate, pH 7.4). PBS was then removed from the plates while carefully leaving some residual PBS, and the wash procedure was repeated once. The buffered saline was then decanted, and the inverted plates were blotted gently on a paper towel. Following replacement of the covers, the plates were placed at −80 C for 15 min followed by thawing at room temperature for 10 min. The plates were then placed on ice, and 50 μl of an ice-cold solution containing 5 mM p-nitrophenyl phosphate, 0.24 mM MgCl2, and 1 M diethanolamine (pH 9.8) was added. Plates were then warmed to room temperature, and the yellow color from the production of p-nitrophenyl was allowed to develop (8 min). Plates were monitored at 405 nm in an enzyme-linked immunosorbent assay plate reader (BIO-RAD, model 2550 EIA Reader).
Dose-response curves as well as IC50 values were calculated using a weighted iterative nonlinear squares regression.

IC50 (Homo sapiens, Ishikawa, 120 h, read-out: Inhibition of 1 nM E2 stimulation of alkaline phosphatase by tested compounds IC50): 1.52 ± 0.22 nM
SMILES: CC1=C(c2ccc(O)cc2)[C@H](c2ccc(OCCN3CCCCC3)cc2)Oc2cc(O)ccc21.Cl [EM-652.HCl, (S)-(+)-7-hydroxy-3-(4′-hydroxyphenyl)-4-methyl-2-(4″-(2′″-piperidino-ethoxy)phenyl)-2H-1-benxopyran hydrochloride]
Stimulation of alkaline phosphatase by tested compounds % of 1 nM E2 stimulation: do not show significant estrogenic activity
Stimulation of alkaline phosphatase by tested compounds % of 1 nM E2 stimulation (listed as EM-652•HCl): 1.88 ± 0.26 (22) % of 1 nM E2 stimulation
